Holding throughout (type): cell-based
Experiment [1] deals with Staphylococcus aureus (ATCC 106414, VISA). As to the kind of experiment: Other MIC determination, microdilution method (CLSI M07-A9) with modifications. To be noted: 10^6 CFU/ml, 18h at 37 °C. The method, then: (§1) The microdilution method recommended by the Clinical and Laboratory Standard Institute [M07-A9, Vol.32, N°2] was used with the following modifications.
(§2) Bacterial inocula were prepared in Mueller Hinton broth (MH2, BioMérieux, Marcy L'Etoile, France). They were dispensed in 96 well microtiter plates (10^6 CFU/ml of final inoculum, 192 µL per well).
(§3) To avoid cross-contaminations in microtiter plates, one row was left blank between each strain tested. Microplates were incubated for 18h at 37 °C in ambient air. Then MICs were read visually and, in case of visual reading difficulties, confirmed using a spectrophotometer at a wavelength of 630 nm (BioTek® EL808 Absorbance Microplate Reader). MICs corresponded to the minimum pyrrolic compound concentrations that allowed complete visual growth inhibition of bacteria. Drug-free cultures served as growth controls.
(§4) We used four Staphylococcus aureus strains. Two reference strains were provided by the French reference center for Staphylococcus spp. (Lyon, France), including one methicillin-susceptible (MSSA 476) and one methicillin-resistant (MRSA 252) S. aureus strains. The two remaining S. aureus strains were purchased from the CRBIP (Centre de Ressources Biologiques de l'Institut Pasteur): a vancomycin-intermediate strain (ATCC 106414) and a S. aureus strain (SA-1199B) resistant to fluoroquinolones due to overexpression of the NorA multidrug efflux pump. Coagulase-negative Staphylococcus strains included three reference strains purchased from CRBIP: a methicillin-susceptible S. epidermidis strain (ATCC 12228), a methicillin-resistant S. epidermidis strain (ATCC 49461), and a methicillin-susceptible S. sciuri strain (ATCC 29061). We also used 37 clinical strains belonging to the following coagulase-negative Staphylococcus species: S. arlettae (two strains), S. capitis (nine strains), S. epidermidis (one strain), S. haemolyticus (six strains), S. hominis (eight strains), S. lugdunensis (one strain), S. massiliensis (one strain), S. pettenkoferi (two strains), S. saprophyticus (two strains), S. simulans (one strain), and S. warneri (four strains) . Identification of the clinical strains was first obtained using VITEK® 2 System (Biomérieux) and confirmed by amplification and sequencing of the tuf gene (Reference: Bergeron, M., O. Dauwalder, M. Gouy, A.-M. Freydiere, M. Bes, H. Meugnier, Y. Benito, J. Etienne, G. Lina, F. Vandenesch, and S. Boisset. Species identification of staphylococci by amplification and sequencing of the tuf gene compared to the gap gene and by matrix-assisted laser desorption ionization time-of-flight mass spectrometry, Eur. J. Clin. Microbial. Infect. Dis. 2011, 30, 343-354).
(§5) The activity of pyrrolic compounds 3c, 3e-3j and 3n was first tested against 12 Staphylococcus sp. strains, including 7 reference strains and five clinical strains. The MICs of these compounds against Staphylococcus aureus ATCC 106414 (VISA) and Staphylococcus epidermidis ATCC 12228 are in accordance with those described in Tables I and II.
A general note: In broth dilution the organism is exposed to a series of concentrations in liquid medium.

Experiment [2] concerns Staphylococcus aureus (MSSA476). Described as above. As to conditions: 10^6 CFU/ml, 18h at 37 °C. The method, then: as §1, §2, §3, §4, §5
Experiment [3] deals with Staphylococcus capitis (CHUG-Scapi1). The experiment is described as above. As to conditions: 10^6 CFU/ml, 18h at 37 °C. On the procedure:
as §1, §2, §3, §4, §5

Experiment [4] deals with Staphylococcus hominis(CHUG-Shom1). Described as above. As to conditions: 10^6 CFU/ml, 18h at 37 °C. On the procedure: as §1, §2, §3, §4, §5
The subject of experiment [5] is Staphylococcus sciuri (ATCC 29061). The experiment is described as above. As to conditions: Mammaliicoccus sciuri, ATCC29061, 10^6 CFU/ml, 18h at 37 °C. On the procedure:
as §1, §2, §3, §4, §5

Experiment [6] has as its system HCT116 (human colon tumor). As to the kind of experiment: In vitro cytotoxicity. To be noted: triplicate; for inhibition at 10 µM: HCT-116, 10^-5 M in DMSO, read-out: % of cellular growth inhibition. The method, then: (§6) In vitro cytotoxicity was assayed on three cell lines - KB (human mouth carcinoma), MCR5 (human lung fibroblast) and HCT116 (human colon tumor). Results are presented in table III as % of cellular growth inhibition in presence of 10^-5 M and 10^-6 M of the tested bis-pyrrolic derivatives in DMSO (triplicate).

For experiment [7], the system named is KB (human mouth carcinoma). As to the kind of experiment: In vitro cytotoxicity. To be noted: triplicate; for inhibition at 10 µM: 10^-5 M in DMSO, read-out: % of cellular growth inhibition. On the procedure:
as §6

Experiment [8] deals with MRC5. Kind of experiment: In vitro cytotoxicity. To be noted: MRC5 (human lung fibroblast), triplicate; for inhibition at 10 µM: 10^-5 M in DMSO, read-out: % of cellular growth inhibition. On the procedure: as §6
Experiment [9] concerns Staphylococcus aureus MRSA 252 CNR HT 2006 0436. As to the kind of experiment: Determination of the minimum bactericidal concentration (MBC), macro-method. To be noted: 18 hours incubation, initial bacterial load 9500000. On the procedure: (§7) The MBC against two different strains of Staphylococcus aureus, one susceptible to methicillin (MSSA 476 CNR HT 2006 0437) and one resistant to methicillin (MRSA 252 CNR HT 2006 0436) obtained from Centre National de Reference des Staphylocoques (Lyon, France) were determined using a macro-method. Sterile tubes were filled with a primary bacterial inoculum prepared in Mueller Hinton broth as above (10^6 CFU/ml of final inoculum) and pyrrolic compounds were added at twofold serial concentrations (0.5-128 mg/L of final concentrations for 3h and 3i and 0.0625-128mg/L of final concentration for 3n). After 18 hours incubation of cultures, ten-fold serial dilutions of the cultures with no visible bacterial growth and of the first tube showing visible bacterial growth were prepared. Then 100µl of each dilution were inoculated to Mueller Hinton agar media for 24-48 hours. CFU counts were then determined and the MBC corresponded to the minimal pyrrolic compound concentration for which 99.9% of more bacterial cells were killed after 18 hours of incubation.
(§8) However, this reduction was only 1-2 log CFU/ml, and thus MBC could not be determined (tables VI and VII). Table VI: MBC against Staphylococcus aureus MRSA 252 CNR HT 2006 0436

Experiment [10] concerns Staphylococcus aureus MSSA 476 CNR HT 2006 0437. The description is as above. As to conditions: 18 hours incubation, initial bacterial load 7,70E+05. The method, then: as §7, §8
Setting [11] is: 10^-6 M in DMSO, read-out: % of cellular growth inhibition (converted).

Molecules are shown by their SMILES. ≈ marks a conversion by molar mass, not a printed value. Bounds are passed on as bounds.

Regarding `CC(=O)c1c(C)[nH]c(C(c2ccc(Cl)cc2)c2[nH]c(C)c(C(C)=O)c2C)c1C` [3c], the MIC (commonly the lowest concentration that inhibits growth of the organism) in [1] was 4 µg/mL (≈ 10.1 µM); in [2] it was 4 µg/mL (≈ 10.1 µM); in experiment [3] it was 8 µg/mL (≈ 20.2 µM); in experiment [4], above 32 µg/mL; in experiment [5] it was above 32 µg/mL. For the same compound, the inhibition – broadly, the relative decrease from the control value, in per cent – at 10 µM in experiment [6] was found to be 17 ± 11%; in experiment [7] it was 27 ± 7%; in experiment [8] it was 9 ± 1%.
For the compound `CC(=O)c1c(C)[nH]c(C(c2cc3ccccc3o2)c2[nH]c(C)c(C(C)=O)c2C)c1C` [3e], the MIC is 4 µg/mL (≈ 9.94 µM) in experiment [1]; 4 µg/mL (≈ 9.94 µM) in experiment [2]; 8 µg/mL (≈ 19.9 µM) in [3]; above 32 µg/mL in experiment [4]; above 32 µg/mL in experiment [5]. The inhibition at 10 µM came to 24 ± 6% in experiment [6], 2 ± 3% in [7] and 7 ± 1% in experiment [8].
For the compound `CC(=O)c1c(C)[nH]c(C(c2cc3ccccc3s2)c2[nH]c(C)c(C(C)=O)c2C)c1C` [3f], the MIC is 2 µg/mL (≈ 4.78 µM) in experiment [1]; 4 µg/mL (≈ 9.56 µM) in experiment [2]; above 32 µg/mL in experiment [3]; above 32 µg/mL in experiment [4]; above 32 µg/mL in experiment [5]. Moreover, the inhibition at 10 µM in experiment [6] was 19 ± 4%; in experiment [7], 23 ± 3%; in experiment [8] it was 0%.
For the compound `CC(=O)c1c(C)[nH]c(C(c2ccc(F)cc2)c2[nH]c(C)c(C(C)=O)c2C)c1C` [3g], the MIC in experiment [1] is 4 µg/mL (≈ 10.5 µM); in experiment [2], 4 µg/mL (≈ 10.5 µM); in experiment [3] it was 8 µg/mL (≈ 21 µM); in experiment [4], above 32 µg/mL; in experiment [5] it was above 32 µg/mL. Moreover, the inhibition at 10 µM in [6] amounted to 3 ± 6%; in experiment [7], 11 ± 3%; in [8], 2 ± 1%.
`CC(=O)c1c(C)[nH]c(C(c2[nH]c(C)c(C(C)=O)c2C)c2cccc3ccccc23)c1C` [3h]: the MIC in [1] is 1 µg/mL (≈ 2.42 µM); in [2], 1 µg/mL (≈ 2.42 µM); in experiment [3], 4 µg/mL (≈ 9.7 µM); in [4], above 32 µg/mL; in [5] it was above 32 µg/mL. Moreover, the inhibition at 10 µM in experiment [6] worked out at 53 ± 2%; in [7], 54 ± 4%; in experiment [8], 25 ± 4%. For the same compound, the inhibition at 1 µM in experiment [6] (HCT-116, 10^-6 M in DMSO, read-out: % of cellular growth inhibition (converted)) is 5%; in experiment [7] (setting [11]), 0%; in experiment [8] (setting [11]) it was 0%. For the same compound, the “CFU counts (bacterial load)” value in [9] (concentration 0,5 mg/L) is 2,10E+08 CFU/ml; in experiment [9] (concentration 1 mg/L), 7,50E+07 CFU/ml; in [9] (concentration 2 mg/L), 5,60E+05 CFU/ml; in experiment [9] (concentration 4 mg/L) it was 5,50E+05 CFU/ml; in experiment [9] (concentration 8 mg/L), 2,40E+05 CFU/ml; in [9] (concentration 16 mg/L) it was 3,20E+05 CFU/ml. Besides, the “CFU counts (bacterial load)” value is reported as 4,20E+05 CFU/ml in experiment [9] (concentration 32 mg/L); 5,59E+05 CFU/ml in experiment [9] (concentration 64 mg/L); 6,28E+05 CFU/ml in [9] (concentration 128 mg/L); 1,63E+08 CFU/ml in experiment [10] (concentration 2 mg/L); 3,20E+05 CFU/ml in [10] (concentration 4 mg/L); 3,34E+05 CFU/ml in experiment [10] (concentration 8 mg/L). Moreover, the “CFU counts (bacterial load)” value in experiment [10] (concentration 16 mg/L) is listed as 3,20E+05 CFU/ml; in experiment [10] (concentration 32 mg/L), 3,70E+05 CFU/ml; in [10] (concentration 64 mg/L) it was 3,90E+05 CFU/ml; in experiment [10] (concentration 128 mg/L), 4,30E+05 CFU/ml.
On to `COC(=O)c1cccc(C(c2[nH]c(C)c(C(C)=O)c2C)c2[nH]c(C)c(C(C)=O)c2C)c1` [3j, Methyl-3-[bis(4-acetyl-3,5-dimethyl-1H-pyrrol-2-yl)methyl]benzoate], for which the MIC in [1] is 4 µg/mL (≈ 9.51 µM); in [2], 4 µg/mL (≈ 9.51 µM); in [3], 16 µg/mL (≈ 38 µM); in experiment [4], above 32 µg/mL; in experiment [5] it was above 32 µg/mL. The inhibition at 10 µM in experiment [6] stood at 1 ± 3%; in [7], 11 ± 3%; in experiment [8], 5 ± 1%.

The values are drawn from patent EP2812315B1, “PYRROLIC DERIVATIVES, PROCESSES FOR PREPARING THE SAME AND THEIR USES AS A DRUG” (Universite Joseph Fourier, priority 2012, dated 2013).
